Where only a bound is given, the exact number is not on record here.

The melting point is the temperature, or range, at which the solid turns liquid.

On to `CC(C)c1ccc(C2c3cc(NC(=O)CC(C)(C)C)ccc3OC2(C)C)cc1` (centres undefined), for which the melting point is 126 to 127 °C.
For the molecule `O=C(O)c1ccc(CN(C2CCCCC2O)S(=O)(=O)c2ccc(Cl)cc2)cc1` (centres undefined), the melting point was in the range of 218 to 219 °C.
For the molecule `COC(=O)c1cccc(Nc2nc(N)c(C(=O)c3ccccc3OC)s2)c1`, the melting point lay in the range of 214 to 215 °C.
Molecule `O=C1[C@H]2CCC[C@H]2N(C(=O)CCCCCn2ccnc2)c2ccccc2N1Cc1ccccc1` (relative stereo) displayed a melting point of 133 to 134 °C.
In the case of `CS(=O)(=O)O[C@@H]([C@H](OS(C)(=O)=O)[C@H](Cc1ccccc1)NC(=O)OCc1ccccc1)[C@H](Cc1ccccc1)NC(=O)OCc1ccccc1`, the melting point is 153 to 155 °C.
As for `COc1nc2cc(Cl)c(Cl)c(CSC)c2nc1OC`, the figure is 143 to 145 °C; as for `COc1ccc(CN2Cc3cncn3C(c3ccc(-c4ccc(Cl)cc4)cc3)C2=O)cc1` (centres undefined), 270 to 273 °C; as for `Cc1cc(N)ccc1NC(=O)c1ccc(N)cc1`, 111 to 115 °C.
Molecule `COc1ccc2cc(-c3ccc(OCC(O)CNC(C)C)cc3)n(C)c(=O)c2c1` (centres undefined) came in with a melting point of 140 to 142 °C.
Molecule `CCCCCCCCCCC/C=C\c1c[nH]c(C(=O)O)c1` had a melting point of 157 to 158 °C.
`CCOC(=O)C(=CNC1CC1)C(=O)c1c(F)cc(F)c(F)c1F`: the melting point fell in the range of 107 to 108 °C.
`COc1ccc(N2CCN(C(=O)C(c3ccccc3)n3cnc4[nH]ncc4c3=S)CC2)cc1` (centres undefined): the melting point was in the range of 114 to 118 °C.
As for `CCCCCCCCCCCCCCC/C=C/C=O`, the melting point was 35 °C.
For the molecule `COc1cc(N)c(Cl)cc1C(=O)NCC1CCN(CCCCCC(=O)c2ccc(C)c(C)c2)CC1`, the melting point is 115 to 117 °C.
With `COC(=O)CCc1ccc(-n2ccn(-c3ccc(C(=N)NC(=O)OC)cc3)c2=O)cc1` the figure was over 260 °C; with `CC(C)[C@H](NC(=O)N(C)Cc1cscn1)C(=O)N[C@@H](Cc1ccccc1)C[C@H](O)[C@H](Cc1ccccc1)NC(=O)OCc1cccnc1`, 69 to 73 °C.
As for `N#Cc1ccc(OCCOc2ccc(C#N)cc2)cc1`, the melting point lay in the range of 196 to 197 °C.
`[O-][N+](C1C2CC(c3ccccc32)C1Cl)=[N+]([O-])C1C2CC(c3ccccc32)C1Cl` (centres undefined): the melting point was in the range of 187 to 188 °C.
Molecule `COc1ccc2[nH]c(C)cc2c1OCc1ccccc1` registered a melting point of 74 to 75 °C.
As for `Cc1oc(-c2ccco2)nc1COc1ccc(COc2nn(Cc3ccccc3)cc2C(N)=O)cc1`, the figure is 139 to 140 °C.
With `COC(=O)c1cc(CCC(=O)NCc2ccccc2)ccc1O` the figure was 139 to 140 °C; with `O=c1c(Cl)c(Cl)cnn1CC(Cl)=CCl`, 93.7 to 94.6 °C.
`COc1ccc(CNC(=S)N2C(=O)CC(c3ccc(OC)c(OC4CCCC4)c3)N2C)cc1` (centres undefined) returned a melting point of 52 to 55 °C.
`CNCC1(C2(O)CCCC2)Cc2cc3sccc3cc21` (centres undefined) had a melting point of 166 to 169 °C.
For `CCOC(=O)C(N)C=C(CCCCCCN)CP(=O)(O)O` (centres undefined), the melting point turned out to be 194 °C.
As for `O=C1C2=C(NC3(OCCO3)C(c3ccccc3)=N2)c2ccccc21`, the figure is 296 °C; as for `OC(CCCN1CCN(c2ncc(F)cn2)CC1)(c1ccc(F)cc1)C1CCCCC1` (centres undefined), 53 to 59 °C.
`CC(=O)N(CC(=O)O)c1csc(NC(=O)OCC(Cl)(Cl)Cl)n1` gave a melting point of 158 °C.
With `OC(c1ccccc1)C1CCN(CCc2ccccc2)CC1` (centres undefined) the figure was 125 to 128 °C; with `Nc1nc(NCC(O)CO)c2ncn(C3C=CC(CO)C3)c2n1` (centres undefined), 119 to 121 °C.
With `O=S1(=O)NCN(CCF)c2cc(Cl)cc(Cl)c21` the figure was 180 to 184 °C.
As for `O=C(Cc1ccccc1)NC1C(=O)N2CC(C(=O)OCc3ccccc3)SC12` (centres undefined), the melting point lay within 130 to 132 °C.
As for `O=C(NC(=NCCCc1c[nH]cn1)NCC(O)COc1ccccc1)c1ccccc1` (centres undefined), the figure is 129 °C.
As for `O=C(O)c1c2c(nc3ccc(F)cc13)-c1cc(F)c(-c3ccc(F)cc3)cc1CCC2`, the figure is over 300 °C.
